Columns and labels:
Experiment in all cases: relative viability (nuclei count vs DMSO), 5 days (fraction); higher = more cells survive
R406 + Crizotinib = compound: COc1cc(Nc2ncc(F)c(Nc3ccc4c(n3)NC(=O)C(C)(C)O4)n2)cc(OC)c1OC [R406] + C[C@@H](Oc1cc(-c2cnn(C3CCNCC3)c2)cnc1N)c1c(Cl)ccc(F)c1Cl [Crizotinib] (partner 1 µM)
In short: (§1)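 The day after seeding in 1536-well plates, lung cancer cell lines were treated by pin tool with a single drug, or with a fixed anchor-drug dose together with five library-drug doses (not always all listed) in √10 steps. After 5 days, a combined fix-and-stain solution (final 0.05% Triton X-100, 1% formaldehyde, 1 ug/ml Hoechst) was added. Nuclei counted on 4× images gave relative viability as treated counts over vehicle counts, reported as the median of duplicate plates.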

R406 + Pemetrexed = compound: COc1cc(Nc2ncc(F)c(Nc3ccc4c(n3)NC(=O)C(C)(C)O4)n2)cc(OC)c1OC [R406] + Nc1nc2[nH]cc(CCc3ccc(C(=O)N[C@@H](CCC(=O)O)C(=O)O)cc3)c2c(=O)[nH]1 [Pemetrexed] (partner 0.2 µM)
In short: as §1

R406 + Luminespib = compound: COc1cc(Nc2ncc(F)c(Nc3ccc4c(n3)NC(=O)C(C)(C)O4)n2)cc(OC)c1OC [R406] + CCNC(=O)c1noc(-c2cc(C(C)C)c(O)cc2O)c1-c1ccc(CN2CCOCC2)cc1 [Luminespib] (partner 0.01 µM)
In short: as §1

Daporinad + OSI-027 = compound: O=C(/C=C/c1cccnc1)NCCCCC1CCN(C(=O)c2ccccc2)CC1 [Daporinad] + COc1cccc2cc(-c3nc([C@H]4CC[C@H](C(=O)O)CC4)n4ncnc(N)c34)[nH]c12 [OSI-027] (partner 0.5 µM)
In short: as §1

Cell Line	relative viability (R406 + Crizotinib; first compound 0.08 µM)	relative viability (R406 + Crizotinib; first compound 0.253 µM)	relative viability (R406 + Crizotinib; first compound 0.8 µM)	relative viability (R406 + Crizotinib; first compound 2.53 µM)	relative viability (R406 + Crizotinib; first compound 8 µM)	relative viability (R406 + Pemetrexed; first compound 0.08 µM)	relative viability (R406 + Pemetrexed; first compound 0.253 µM)	relative viability (R406 + Pemetrexed; first compound 0.8 µM)	relative viability (R406 + Pemetrexed; first compound 2.53 µM)	relative viability (R406 + Pemetrexed; first compound 8 µM)	relative viability (R406 + Luminespib; first compound 0.08 µM)	relative viability (R406 + Luminespib; first compound 0.253 µM)	relative viability (R406 + Luminespib; first compound 0.8 µM)	relative viability (R406 + Luminespib; first compound 2.53 µM)	relative viability (R406 + Luminespib; first compound 8 µM)	relative viability (Daporinad + OSI-027; first compound 0.0005 µM)	relative viability (Daporinad + OSI-027; first compound 0.001581 µM)	relative viability (Daporinad + OSI-027; first compound 0.005 µM)	relative viability (Daporinad + OSI-027; first compound 0.01581 µM)
NCI-H650	0.809	0.848	0.713	0.59	0.532	0.912	1.13	0.953	0.779	0.591	0.81	0.878	0.879	0.294	0.487	0.477	0.415	0.525	0.626
NCI-H1755	0.81	0.954	0.861	0.641	0.188	0.474	0.419	0.426	0.385	0.33	0.351	0.459	0.255	0.211	0.334	0.628	0.758	0.761	0.778
NCI-H3122	0.286	0.257	0.247	0.25	0.259	0.198	0.202	0.189	0.194	0.17	0.114	0.116	0.132		0.0937	0.851	1.18	0.98	0.845
NCI-H358	0.639	0.587	0.498	0.434	0.221	0.167	0.17	0.168	0.146	0.145	0.313	0.555	0.492	0.147	0.136	0.664	0.794	0.886	0.77
PC-3 [JPC-3]	1.04	1	1.02	0.98	0.885	1.08	1.25	1.25	0.882	0.455	0.743	0.708	0.903	0.485	0.509	0.802	0.707	0.874	0.823
SK-MES-1	0.992	1.04	0.959	0.73	0.43	0.948	0.942	1.01	0.538	0.213	0.863	0.858	0.957	0.232	0.137	0.532	0.608	0.734	0.601
NCI-H2347	0.588	0.538	0.889	0.556	0.487	0.402	0.398	0.433	0.395	0.387	0.521	0.16	0.553	0.307	0.272	0.463	0.377	0.335	0.489
NCI-H2228	0.572	0.435	0.528	0.164	0.101	0.316	0.332	0.352	0.255	0.0888	0.145	0.213	0.103	0.0925	0.0961	0.561	0.552	0.915	0.731
NCI-H1563	0.791	0.868	0.891	0.913	0.619	0.707	0.929	0.794	0.659	0.444	0.542	0.654	0.475	0.485	0.452	0.754	0.749	0.807	0.719
EKVX	0.949	0.986	1.09	0.867	0.806	0.374	0.467	0.395	0.365	0.387	0.863	0.885	1.06	0.702	0.74	0.692	0.738	0.683	0.806
HOP-62	1.12	1.21	0.844	1.1	1.17	0.315	0.348	0.297	0.412	0.344	0.858	1.01	0.901	0.95	0.947	0.812	0.935	0.877	0.665
NCI-H2126	0.965	1.11	1.01	1.02	0.995	0.749	0.664	0.722	0.599	0.61	0.826	0.868	0.796	0.597	0.437	0.718	0.592	0.689	0.756
NCI-H1944	1.1	1.24	1.04	0.875	0.737	0.617	0.617	0.684	0.571	0.411	0.686	0.805	0.759	0.369	0.517	0.447	0.422	0.527	0.517
EPLC-272H	0.798	1.07	1.09	0.533	0.49	0.359	0.359	0.316	0.231	0.151	0.259	0.264	0.337	0.106	0.0888	0.243	0.298	0.316	0.365
RERF-LC-KJ	0.762	0.838	0.875	0.81	0.771	0.457	0.487	0.473	0.458	0.381	1.25	1.3	1.19	1.25	0.725	0.541	0.63	0.648	0.612
